Data on four molecules can be found in patent US10059741B2 (priority 2015, dated 2018).

The structures appear in SMILES notation. “And” between values parts separate entries of the source, which are not always exact repeats. Equal entries are not always repeated. Where two headings read alike, the source gives them in different places. Bridge positions count the residues as written; N and C are the ends. Square brackets hold non-standard residues; d marks the D form. Peptide text beside a SMILES is read from it. R8 = C=CCCCCCC[C@@](C)(N)C(=O)O; S5 = C=CCCC[C@](C)(N)C(=O)O; Nle = CCCC[C@H](N)C(=O)O; Aib = CC(C)(N)C(=O)O Bounds are passed on as bounds.

For data set [1], the system named is H1N1 California/07/2009. Nature of the data set: microbe, parasite or virus in culture. The format is cell-based, influenza A virus.
The test system of data set [2] is H3N2 Perth/16/2009. Put plainly: microbe, parasite or virus in culture. The format is cell-based, influenza A virus.
The test system of data set [3] is H1N1 California/07/2009. Nature of the data set: microbe, parasite or virus in culture. The data set is classed as cell-based, influenza A virus. This is another data set of the same source.
Data set [4] has as its system H3N2 Perth/16/2009. Nature of the data set: microbe, parasite or virus in culture. The data set is classed as cell-based, influenza A virus. This is another data set of the same source.
The nature of another data set: in vitro. To be noted: dog.
The mark [5] stands for this setting: CC50 (μM) H1N1 California/07/2009, Cell cytotoxicity (CC), run with H1N1 California/07/2009.
[6] abbreviates: CC50 (μM) H3N2 Perth/16/2009, Cell cytotoxicity (CC), run with H3N2 Perth/16/2009.
[7] abbreviates: CC50, run with Influenza A H1N1 California/07/2009, Neutral Red.
Where [8] appears, read: CC50, run with Influenza A H1N1 California/07/2009, Visual.
The mark [9] stands for this setting: CC50, run with Influenza A H3N2 Perth/16/2006 (so in the source), Neutral Red.
Setting [10] is: CC50, run with Influenza A H3N2 Perth/16/2006 (so in the source), Visual.
[11] abbreviates: read-out: EC50 (μM) H1N1 California/07/2009.
[12] abbreviates: read-out: EC50 (μM) H3N2 Perth/16/2009.
The mark [13] stands for this setting: CC50, MDCK cells, run with Influenza A H1N1 California/07/2009, Neutral Red.
[14] abbreviates: CC50, MDCK cells, run with Influenza A H1N1 California/07/2009, Visual.

Turning to `CCCC[C@H](NC(C)=O)C(=O)N[C@@H](CC(=O)O)C(=O)N[C@H](C(=O)N[C@@H](CC(N)=O)C(=O)N[C@]1(C)CCCCCCC=CCCC[C@@](C)(C(=O)N[C@@H](C)C(=O)N[C@@H](C)C(=O)N[C@@H](CCC(N)=O)C(=O)N[C@@H](C)C(=O)N[C@@H](C)C(N)=O)NC(=O)[C@H](C)NC(=O)[C@H](CC(C)C)NC(=O)[C@H](Cc2ccccc2)NC(=O)[C@H](CC(C)C)NC(=O)[C@H](CC(C)C)NC(=O)[C@H]([C@@H](C)O)NC1=O)C(C)C` [SP-24] (Ac-[Nle]DVN[R8]TLLFLA[S5]AAQAA-NH2; staple 5-12), the EC50 with H1N1 California/07/2009 [1] (Cytopathic effect/toxicity (Visual), MDCK cells, read-out: EC50 (μM) H1N1 California/07/2009) is 1.5 to 10 µM; with H1N1 California/07/2009 [1] (Influenza A H1N1 California/07/2009, Drug Assay Visual, read-out: EC50), 4.3 µM; in the data set with H3N2 Perth/16/2009 [2] (Cytopathic effect/toxicity (Visual), MDCK cells, read-out: EC50 (μM) H3N2 Perth/16/2009) it was 1.5 to 10 µM; with H3N2 Perth/16/2009 [2] (Influenza A H3N2 Perth/16/2006 (so in the source), Drug Assay Visual, read-out: EC50), 2.5 µM; with H1N1 California/07/2009 [3] (Cytopathic effect/toxicity (Neutral red), MDCK cells, read-out: EC50 (μM) H1N1 California/07/2009), 1.5 to 10 µM; in the data set with H1N1 California/07/2009 [3] (Influenza A H1N1 California/07/2009, Drug Assay Neutral Red, read-out: EC50), 6.9 µM. For the same molecule, the EC50 with H3N2 Perth/16/2009 [4] (Cytopathic effect/toxicity (Neutral red), MDCK cells, read-out: EC50 (μM) H3N2 Perth/16/2009) is 1.5 to 10 µM; with H3N2 Perth/16/2009 [4] (Influenza A H3N2 Perth/16/2006 (so in the source), Drug Assay Neutral Red, read-out: EC50) it was 3.4 µM. For the same molecule, the CC50 in the data set “in vitro” (setting [5]), in “in vitro” (setting [6]), in the data set “in vitro” (setting [7]), in the data set “in vitro” (setting [8]), in “in vitro” (setting [9]) and in “in vitro” (setting [10]) was over 100 µM in each case.

For `CCCC[C@H](NC(C)=O)C(=O)N[C@@H](CC(=O)O)C(=O)N[C@H](C(=O)N[C@@H](CC(N)=O)C(=O)N[C@@]1(C)CCCC=CCCC[C@@](C)(C(=O)N[C@@H](CC(C)C)C(=O)N[C@@H](C)C(=O)N[C@H](C(=O)N[C@@H](CCC(N)=O)C(=O)N[C@@H](C)C(=O)N[C@@H](CCC(N)=O)C(=O)NC(C)(C)C(=O)N[C@@H](C)C(N)=O)C(C)C)NC(=O)[C@H](CC(C)C)NC(=O)[C@H](CC(C)C)NC(=O)[C@H]([C@@H](C)O)NC1=O)C(C)C` [SP-20] (Ac-[Nle]DVN[S5]TLL[S5]LAVQAQ[Aib]A-NH2; staple 5-9), the EC50 lay within 10 to 25 µM in the data set on H1N1 California/07/2009 [1] (setting [11]), 1.5 to 10 µM with H3N2 Perth/16/2009 [2] (setting [12]), 25 to 50 µM with H1N1 California/07/2009 [3] (setting [11]) and 1.5 to 10 µM with H3N2 Perth/16/2009 [4] (setting [12]). Moreover, the CC50 in “in vitro” (setting [5]), in “in vitro” (setting [6]), in the data set “in vitro” (setting [7]), in “in vitro” (setting [8]), in “in vitro” (setting [9]) and in the data set “in vitro” (setting [10]) was over 100 µM in each case.

For the molecule `CCCC[C@H](NC(C)=O)C(=O)N[C@@H](CC(=O)O)C(=O)N[C@H](C(=O)N[C@@H](CC(N)=O)C(=O)N[C@@]1(C)CCCC=CCCC[C@@](C)(C(=O)N[C@@H](CC(C)C)C(=O)N[C@@H](C)C(=O)N[C@H](C(=O)NC(C)(C)C(=O)N[C@@H](C)C(=O)N[C@@H](CCC(N)=O)C(=O)N[C@@H](C)C(=O)N[C@H](C)C(=O)O)C(C)C)NC(=O)[C@H](CC(C)C)NC(=O)[C@H](CC(C)C)NC(=O)[C@H]([C@@H](C)O)NC1=O)C(C)C` [SP-17] (Ac-[Nle]DVN[S5]TLL[S5]LAV[Aib]AQA[dA]-OH; staple 5-9), the EC50 was 25 to 50 µM with H1N1 California/07/2009 [1] (setting [11]), 10 to 25 µM in the data set on H3N2 Perth/16/2009 [2] (setting [12]), 25 to 50 µM in the data set with H1N1 California/07/2009 [3] (setting [11]) and 10 to 25 µM in the data set on H3N2 Perth/16/2009 [4] (setting [12]). Also, the CC50 in “in vitro” (setting [5]), in the data set “in vitro” (setting [6]), in “in vitro” (setting [13]) and in the data set “in vitro” (setting [14]) was over 100 µM in each case.

Consider `CCCC[C@H](NC(C)=O)C(=O)N[C@@H](CC(=O)O)C(=O)N[C@H](C(=O)N[C@@H](CC(N)=O)C(=O)N[C@@]1(C)CCCC=CCCC[C@@](C)(C(=O)N[C@@H](CC(C)C)C(=O)N[C@@H](CCCCN)C(=O)N[C@H](C(=O)NC(C)(C)C(=O)N[C@@H](C)C(=O)N[C@@H](C)C(N)=O)C(C)C)NC(=O)[C@H](CC(C)C)NC(=O)[C@H](CC(C)C)NC(=O)[C@H]([C@@H](C)O)NC1=O)C(C)C` [SP-2] (Ac-[Nle]DVN[S5]TLL[S5]LKV[Aib]AA-NH2; staple 5-9), for which the EC50 in the data set with H1N1 California/07/2009 [1] (setting [11]) was over 50 µM; in the data set on H3N2 Perth/16/2009 [2] (setting [12]), 10 to 25 µM; with H1N1 California/07/2009 [3] (read-out: EC50) it was 51 µM and 32 µM; in the data set on H1N1 California/07/2009 [3] (setting [11]), over 50 µM; in the data set with H3N2 Perth/16/2009 [4] (setting [12]) it was 25 to 50 µM. The CC50 in the data set “in vitro” (setting [5]), in “in vitro” (setting [6]), in the data set “in vitro” (setting [13]) and in “in vitro” (setting [14]) was over 100 µM each time.
